In patent publication US6825205B2 (priority 2002, dated 2004):

How the values were obtained:
[1] = molecular target: μ opioid receptor (μ membrane protein) (Homo sapiens, UniProt P35372); experiment: biochemical
[2] = rat, in vivo
in vivo = conditions: Sprague-Dawley, rat, ip, 10 mg/kg

Sequence of μ opioid receptor (μ membrane protein) (P35372 whole entry, species assumed): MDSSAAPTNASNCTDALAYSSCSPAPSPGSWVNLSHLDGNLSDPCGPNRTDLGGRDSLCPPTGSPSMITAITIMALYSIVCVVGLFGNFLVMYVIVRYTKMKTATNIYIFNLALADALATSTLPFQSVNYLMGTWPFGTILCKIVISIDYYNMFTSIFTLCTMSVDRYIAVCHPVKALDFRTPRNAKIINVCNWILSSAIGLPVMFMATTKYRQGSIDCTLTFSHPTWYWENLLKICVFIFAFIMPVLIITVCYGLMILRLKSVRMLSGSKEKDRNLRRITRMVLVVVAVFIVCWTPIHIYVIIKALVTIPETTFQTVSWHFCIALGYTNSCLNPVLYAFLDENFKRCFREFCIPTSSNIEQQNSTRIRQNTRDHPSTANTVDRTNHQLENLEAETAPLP

## C[N+]1(C)CC[C@]23c4c5ccc(O)c4O[C@H]2C(=O)CC[C@H]3[C@H]1C5 [N-methylhydromorphone, N-methylhydromorphonium iodide]
[1]
  EC50: 817 ± 83 nM
  GTP-γ-S Activity/Efficacy % DAMGO: 29 ± 1 % DAMGO
[2]
  Penetration of the CNS / blood-brain barrier: does not penetrate the CNS
In vivo
  Kp: 0.02 ± 0.01
